Data taken from patent US20250144067A1, “PERSONALIZED STARVATION THERAPY FOR CANCER” (Faeth Therapeutics, Inc., priority 2021, published 2025).
Counter-ions that a name gives are not always drawn.

Experiments:
[1] = system: NCI-H292 lung cancer cells; test: FDA drug screening, complete media vs cholesterol-free media with simvastatin (TABLE 2); format: cell-based, human; conditions: for Cholesterol-free media + simvastatin (0.04 μM) / Complete Media: NCI-H292 cells; for Difference: >0 enhanced anti-cancer activity, about 0 neutral, <0 antagonist
[2] = system: NCI-H292 lung cancer cells; test: FDA drug screening, complete media vs cholesterol-free media without statin (TABLE 1); format: cell-based, human; conditions: for Difference: about 0 neutral
[3] = FDA drug library screen, cholesterol-free media with simvastatin 0.04 μM
[4] = FDA drug library screen, complete media
[5] = complete media minus cholesterol-free media + simvastatin
[6] = NCI-H292 cells, cholesterol-free media without statin
[7] = complete vs cholesterol-free media, greater than 0 enhanced anti-cancer activity, below 0 antagonists
[8] = cholesterol-free media with simvastatin 0.04 μM, cell growth value in FDA drug screen
[9] = complete media, cell growth value in FDA drug screen
[10] = FDA library drug in cholesterol-free media with simvastatin 0.04 μM
[11] = FDA library drug in complete media
[12] = complete media vs cholesterol-free media + simvastatin (0.04 μM)
[13] = NCI-H292 cells, cholesterol-free media without statin, FDA drug library screen
[14] = NCI-H292 cells, complete media, FDA drug library screen
[15] = complete vs cholesterol-free media, >0 enhanced anti-cancer activity, <0 antagonist
[16] = Complete minus Cholesterol-free, >0 enhanced anti-cancer activity, <0 antagonist
[17] = Complete minus Cholesterol-free, greater than 0 enhanced anti-cancer activity, below 0 antagonists
[18] = NCI-H292 cells in cholesterol-free media without statin
[19] = NCI-H292 cells in complete media

SMILES	Cholesterol-free media + simvastatin (0.04 μM) [1, 3]	Complete Media [1, 4]	Difference [1, 5]	Cholesterol-free [2, 6]	Complete ([2]; NCI-H292 cells, complete media)	Cholesterol-free media + simvastatin (0.04 μM) [1, 8]	Complete Media [1, 9]	Cholesterol-free media + simvastatin (0.04 μM) [1, 10]	Complete Media [1, 11]	Difference [1, 12]	Cholesterol-free [2, 13]	Complete [2, 14]	Difference [2, 15]	other results
CCN[C@@H]1C[C@H](N)[C@@H](O[C@H]2OC(CN)=CC[C@H]2N)[C@H](O)[C@H]1O[C@H]1OC[C@](C)(O)[C@H](NC)[C@H]1O.CCN[C@@H]1C[C@H](N)[C@@H](O[C@H]2OC(CN)=CC[C@H]2N)[C@H](O)[C@H]1O[C@H]1OC[C@](C)(O)[C@H](NC)[C@H]1O.O=S(=O)(O)O.O=S(=O)(O)O.O=S(=O)(O)O.O=S(=O)(O)O.O=S(=O)(O)O [Netilmicin (sulfate)]	1.19	1.538	0.35	1.778	1.428									Difference [2, 7]: −0.35
Cc1ccccc1-c1cc(N2CCN(C)CC2)ncc1N(C)C(=O)C(C)(C)c1cc(C(F)(F)F)cc(C(F)(F)F)c1 [Netupitant]			0.06	1.25	0.915	0.8546	0.9156							Difference [2, 7]: −0.34
Cc1ccnc2c1NC(=O)c1cccnc1N2C1CC1 [Nevirapine]								1.384	0.9254	−0.46	0.7658	1.137	0.37	
O=C(O)c1cccnc1 [Niacin]			0.12	1.266	0.9994	1.244	1.362							Difference [2, 16]: −0.27
COC(=O)C1=C(C)NC(C)=C(C(=O)OCCN(C)Cc2ccccc2)C1c1cccc([N+](=O)[O-])c1 (stereo not drawn) [Nicardipine (hydrochloride)]								1.292	0.8256	−0.47	0.9198	0.9062		Difference [2, 16]: −0.01
CO[C@]12C[C@@H](COC(=O)c3cncc(Br)c3)CN(C)[C@@H]1Cc1cn(C)c3cccc2c13 [Nicergoline]								1.053	0.4708	−0.58	0.9355	1.445	0.51	
O=C(Nc1ccc([N+](=O)[O-])cc1Cl)c1cc(Cl)ccc1O [Niclosamide]	0.365	1.031	0.67	0.9593	0.6271									Difference [2, 7]: −0.33
O=C(NCCO[N+](=O)[O-])c1cccnc1 [Nicorandil]			0.07			0.9809	1.055				0.8284	1.354	0.53	
NC(=O)c1cccnc1 [Nicotinamide]	0.9853	0.9029								−0.08				Difference ([2]; Complete minus Cholesterol-free, greater than 0 enhanced anti-cancer activity, below 0 antagonist): −0.17; Cholesterol-free ([2]; NCI-H292 cells, FDA drug library screen, cholesterol-free media without statin): 0.8882; Complete ([2]; NCI-H292 cells, FDA drug library screen, complete media): 0.716
COC(=O)C1=C(C)NC(C)=C(C(=O)OC)C1c1ccccc1[N+](=O)[O-] [Nifedipine]	1.819	1.696								−0.12				Difference [2, 17]: −0.53; Cholesterol-free [2, 18]: 1.45; Complete [2, 19]: 0.9229
Cc1c(NC(=O)c2cccnc2)c(=O)n(-c2ccccc2)n1C [Nifenazone]			0.04			0.9965	1.032							Difference [2, 17]: −0.66; Cholesterol-free [2, 18]: 1.466; Complete [2, 19]: 0.8088
O=C(O)c1cccnc1Nc1cccc(C(F)(F)F)c1 [Niflumic acid]								0.9955	0.2879	−0.71	0.872	1.486	0.61	
